Laboratory results: patent US20060030585A1, “Tricyclic delta-opioid modulators” (priority 2004, published 2006)
pEC50, pKi: −log10 of the molar value. Several values for one entry are separate records, joined by “and”; a condition that tells them apart may be missing. Equal values may be shown once. Read-outs that look alike come from different tables or passages of the source.

What was measured:
[1] = biological target: delta opioid receptor (Rattus norvegicus, UniProt P33533); assay: Rat brain delta opioid receptor binding assay ([3H]DPDPE); details: Rat delta opioid receptor binding constant, rat forebrain membranes, ~4 nM [3H]DPDPE
Protocol: Rat Brain Delta Opioid Receptor Binding Assay
Procedure: Male, Sprague Dawley rats (150-250 g, VAF, Charles River, Kingston, N.Y.) were killed by CO2, and their brains removed and placed immediately in ice cold Tris HCl buffer (50 mM, pH 7.4). The forebrains were separated from the remainder of the brain by a coronal transection, beginning dorsally at the colliculi and passing ventrally through the midbrain-pontine junction. After dissection, the forebrains were homogenized in Tris buffer in a Teflon®-glass homogenizer. The homogenate was diluted to a concentration of 1 g of forebrain tissue per 80 mL Tris and centrifuged at 39,000×g for 10 min. The pellet was resuspended in the same volume of Tris buffer containing 5 mM MgCl2 with several brief pulses from a Polytron homogenizer. This particulate preparation was used for the delta opioid binding assays. Following incubation with the delta selective peptide ligand ˜4 nM [^3H]DPDPE at 25° C. for 2.5 h in a 96-well plate with total volume of 1 mL, the plate contents were filtered through Wallac filtermat B sheets on a Tomtec 96-well harvester. The filters were rinsed three times with 2 mL of 10 mM HEPES (pH 7.4), and dried in a 650 W microwave oven for 1.75 min twice. To each sample area 2×50 μL of Betaplate Scint scintillation fluid (LKB) was added and the radioactivity quantified on a LKB (Wallac) 1205 BetaPlate liquid scintillation counter.
Analysis: The data from the scintillation counter were used to calculate either the % inhibition compared to control binding (when only a single concentration of test compound was evaluated) or a Ki value (when a range of concentrations was tested). Percent inhibition was calculated as: [(total dpm-test compound dpm)/(total dpm-nonspecific dpm)]*100. Kd and Ki values were calculated using GraphPad PRISM data analysis program.

[2] = biological target: mu opioid receptor (Rattus norvegicus, UniProt P33535); assay: Rat brain mu opioid receptor binding assay ([3H]DAMGO); details: Rat mu opioid receptor binding constant, rat forebrain membranes, ~0.8 nM [3H]DAMGO
Protocol: Rat Brain Mu Opioid Receptor Binding Assay
Procedure: Male, Sprague Dawley rats (150-250 g, VAF, Charles River, Kingston, N.Y.) were killed by CO2, and their brains removed and placed immediately in ice cold Tris HCl buffer (50 mM, pH 7.4). The forebrains were separated from the remainder of the brain by a coronal transection, beginning dorsally at the colliculi and passing ventrally through the midbrain-pontine junction. After dissection, the forebrains were homogenized in Tris buffer in a Teflon®-glass homogenizer. The homogenate was diluted to a concentration of 1 g of forebrain tissue per 80 mL Tris and centrifuged at 39,000×g for 10 min. The pellet was resuspended in the same volume of Tris buffer containing 5 mM MgCl2 with several brief pulses from a Polytron homogenizer. This particulate preparation was used for the delta opioid binding assays.
Analysis: The data from the scintillation counter were used to calculate either the % inhibition compared to control binding (when only a single concentration of test compound was evaluated) or a Ki value (when a range of concentrations tested). Percent inhibition was calculated as: [(total dpm-test compound dpm)/(total dpm-nonspecific dpm)]*100. Kd and Ki values were calculated using GraphPad PRISM data analysis program.

[3] = biological target: T1, delta opioid receptor (NG108-15 cell membranes) (Mus musculus, UniProt P32300); assay: [35S]GTPγS binding assay in NG108-15 cell membranes (delta opioid); format: biochemical; details: agonist-stimulated [35S]GTPγS binding
T1 construct: NG108-15 cell membranes were purchased from Applied Cell Sciences (Rockville, Md.); host or cells: NG108-15 cell membranes (purchased)
Protocol: [^35S]GTPγS Binding Assay in NG108-15 Cell Membranes (delta opioid)
Methods: NG108-15 cell membranes were purchased from Applied Cell Sciences (Rockville, Md.). 8 mg/mL of membrane protein suspended in 10 mM TRIS-HCl pH 7.2, 2 mM EDTA, 10% sucrose. Membranes were maintained at 4-8° C. A 1 mL volume of membranes was added into 10 mL cold binding assay buffer. The assay buffer contained 50 mM Tris, pH 7.6, 5 mM MgCl2, 100 mM NaCl, 1 mM DTT and 1 mM EGTA. The membrane suspension was homogenized twice with a Polytron, and centrifuged at 3000 rpm for 10 min. The supernatant was then centrifuged at 18,000 rpm for 20 min. Ten mL assay buffer was added into the pellet containing tube. The pellet and buffer were mixed with a Polytron.
Incubation procedure: The pellet membranes (75 μg/mL) were preincubated with SPA (10 mg/mL) at 25° C. for 45 min in the assay buffer. […] GTPγS in the same Tris buffer containing 100 μM GDP in total volume of 200 μL. Increasing concentrations of receptor agonists were used to stimulate [35S]-GTPγS binding. The basal binding was tested in the absence of agonists and non-specific binding was tested in the presence of 10 μM unlabeled GTPγS. The data were analyzed on a Packard Top Count.
% of Basal=(stimulated−non specific)*100/(basal−non specific). EC50 value values were calculated using GraphPad Prism.

[4] = DOR GTPγS EC50, NG108-15 cell membranes
[5] = NG108-15 cell membranes, read-out: DOR GTPγS EC50

T1 sequence (P32300 whole entry): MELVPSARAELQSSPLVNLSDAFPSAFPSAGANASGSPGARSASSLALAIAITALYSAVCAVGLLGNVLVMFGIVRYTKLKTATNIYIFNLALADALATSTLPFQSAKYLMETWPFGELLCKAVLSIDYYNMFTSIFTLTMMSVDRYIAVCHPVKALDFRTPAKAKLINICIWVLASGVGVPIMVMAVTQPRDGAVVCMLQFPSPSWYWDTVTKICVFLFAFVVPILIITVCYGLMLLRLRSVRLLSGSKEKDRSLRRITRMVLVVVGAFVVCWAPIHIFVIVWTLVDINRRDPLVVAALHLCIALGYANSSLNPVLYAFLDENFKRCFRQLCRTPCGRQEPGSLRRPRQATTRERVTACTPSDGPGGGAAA
Chain of delta opioid receptor (P33533 whole entry): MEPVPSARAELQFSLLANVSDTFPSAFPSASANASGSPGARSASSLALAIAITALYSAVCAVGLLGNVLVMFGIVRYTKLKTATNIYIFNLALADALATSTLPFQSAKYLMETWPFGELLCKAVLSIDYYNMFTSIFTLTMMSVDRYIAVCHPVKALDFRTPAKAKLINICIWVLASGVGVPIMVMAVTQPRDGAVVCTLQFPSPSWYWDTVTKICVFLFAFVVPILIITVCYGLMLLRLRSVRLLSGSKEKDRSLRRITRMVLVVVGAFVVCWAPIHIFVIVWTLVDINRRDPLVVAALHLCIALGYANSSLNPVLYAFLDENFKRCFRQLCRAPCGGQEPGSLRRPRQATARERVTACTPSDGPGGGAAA
Chain of mu opioid receptor (P33535 whole entry): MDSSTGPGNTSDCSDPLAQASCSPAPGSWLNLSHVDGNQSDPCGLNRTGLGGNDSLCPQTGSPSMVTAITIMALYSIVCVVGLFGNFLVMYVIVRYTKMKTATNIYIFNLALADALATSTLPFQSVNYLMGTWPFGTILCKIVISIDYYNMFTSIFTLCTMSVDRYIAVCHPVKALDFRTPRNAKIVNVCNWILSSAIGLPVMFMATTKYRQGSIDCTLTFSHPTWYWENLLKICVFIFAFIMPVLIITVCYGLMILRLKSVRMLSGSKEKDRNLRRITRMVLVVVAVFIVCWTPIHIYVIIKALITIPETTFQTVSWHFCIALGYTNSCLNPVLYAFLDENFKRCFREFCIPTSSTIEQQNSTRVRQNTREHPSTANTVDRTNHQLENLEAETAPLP

Structure (SMILES)	pKi ([1]; DOR Ki)	pKi ([2]; MOR Ki)	pEC50 [3, 4]	pKi ([1]; read-out: DOR Ki)	pKi ([2]; read-out: MOR Ki)	pEC50 [3, 5]
O=C(NC(CO)Cc1ccccc1)c1ccc2c(c1)Oc1ccccc1C2=C1CC2CCC(C1)N2 (single isomer, unassigned) [Cpd 15]	7.56	6.38	7.10			
O=C(c1ccc2c(c1)Oc1ccccc1C2=C1CC2CCC(C1)N2)N1CCCC1 [Cpd 6, [9-(8-Aza-bicyclo[3.2.1]oct-3-ylidene)-9H-xanthen-3-yl]-pyrrolidin-1-yl-methanone]	8.13	5.86	7.23			
O=C(NCc1cccc(F)c1)c1ccc2c(c1)Oc1ccccc1C2=C1CC2CCC(C1)N2 [Cpd 11]				7.73	6.13	6.68
O=c1[nH]c(-c2ccc3c(c2)Oc2ccccc2C3=C2CC3CCC(C2)N3)no1 [Cpd 91]				9.12	< 5.00	7.14
COCCN(C)C(=O)c1ccc2c(c1)Oc1ccccc1C2=C1CC2CCC(C1)N2 [Cpd 7]	8.12	5.74	6.76			
Cc1cccc(C)c1OCC(C)NC(=O)c1ccc2c(c1)Oc1ccccc1C2=C1CC2CCC(C1)N2 (centres unmarked) [Cpd 13]	7.63				5.53	6.19
COc1cccc2c1Oc1cc(-c3cccnc3)ccc1C2=C1CC2CCC(C1)N2 [Cpd 71]				8.24	5.94	5.71
S=c1[nH]c(-c2ccc3c(c2)Oc2ccccc2C3=C2CC3CCC(C2)N3)no1 [Cpd 93]				9.43	5.43	6.20
c1ccc2c(c1)Oc1cc(-c3nnn[nH]3)ccc1C2=C1CC2CCC(C1)N2 [Cpd 80]						6.65
O=c1[nH]c(-c2ccc3c(c2)Oc2ccccc2C3=C2CC3CCC(C2)N3)ns1 [Cpd 101]				8.15	6.33	6.55
c1ccc2c(c1)Sc1cc(-c3nnn[nH]3)ccc1C2=C1C[C@H]2CC[C@@H](C1)N2 (single isomer, unassigned) [Cpd 103, (1SR,5RS)-3-[3-(1H-tetrazol-5-yl)-thioxanthen-9-ylidene]-8-aza-bicyclo[3.2.1]octane]	8.00	6.48	7.30			
S=c1[nH]c(-c2ccc3c(c2)Oc2ccccc2C3=C2CC3CCC(C2)N3)no1 [Cpd 5, 3-[9-(8-Aza-bicyclo[3.2.1]oct-3-ylidene)-9H-xanthen-3-yl]-4H-[1,2,4]oxadiazole-5-thione]	8.16	5.99	6.98			
COc1cccc2c1Oc1cc(-c3nnn[nH]3)ccc1C2=C1CC2CCC(C1)N2 [Cpd 82]				8.25	6.51	7.05
CC(=O)Nc1ccccc1-c1ccc2c(c1)Oc1ccccc1C2=C1CC2CCC(C1)N2 [Cpd 2, N-{2-[9-(8-Aza-bicyclo[3.2.1]oct-3-ylidene)-9H-xanthen-3-yl]-phenyl}-aceta-mide]	8.36	5.94	6.40			
O=c1[nH]c(-c2ccc3c(c2)Oc2ccccc2C3=C2CC3CCC(C2)N3)no1 [Cpd 92]				10.15	6.30	6.99
c1ccc2c(c1)Oc1cc(-c3nnn[nH]3)ccc1C2=C1CC2CCC(C1)N2 [Cpd 1, 3-[3-(1H-Tetrazol-5-ly)-xanthen-9-ylidene]-8-aza-bicyclo[3.2.1]octane]	8.70	6.20	6.72 and 7.15			
CN(C(=O)c1ccc2c(c1)Oc1ccccc1C2=C1CC2CCC(C1)N2)C1CCCCC1 [Cpd 22]	7.26	5.95				
CS(=O)(=O)c1ccc(-c2ccc3c(c2)Oc2ccccc2C3=C2CC3CCC(C2)N3)cc1 [Cpd 53]	5.50	5.48				
COc1cccc2c1Oc1cc(Br)ccc1C2=C1CC2CCC(C1)N2 [Cpd 79]	6.72	5.32				
O=C(c1ccc2c(c1)Oc1ccccc1C2=C1CC2CCC(C1)N2)N(CC(F)(F)F)CC(F)(F)F [Cpd 48]				6.03	5.69	
CN(C)C(=O)CN(C)C(=O)c1ccc2c(c1)Oc1ccccc1C2=C1CC2CCC(C1)N2 [Cpd 68]				8.07	5.62	
O=C(c1ccc2c(c1)Oc1ccccc1C2=C1CC2CCC(C1)N2)N1CCC(O)C1 (single isomer, unassigned) [Cpd 70]	7.20	5.78				
O=C(NC1CCC(C(F)(F)F)CC1)c1ccc2c(c1)Oc1ccccc1C2=C1CC2CCC(C1)N2 (centres unmarked) [Cpd 62]				6.51	5.13	
COC[C@H](Cc1ccccc1)NC(=O)c1ccc2c(c1)Oc1ccccc1C2=C1CC2CCC(C1)N2 [Cpd 31]				6.85	6.18	
Cn1ccc(-c2ccc3c(c2)Oc2ccccc2C3=C2CC3CCC(C2)N3)n1 [Cpd 111]	6.66	5.58				
CCOC(=O)N1C2CCC1CC(=C1c3ccccc3Oc3cc(C(=O)N(C)CCO)ccc31)C2 [Cpd 75]				5.35	5.00	
O=C(c1ccc2c(c1)Oc1ccccc1C2=C1CC2CCC(C1)N2)N1CCC(O)C1 (single isomer, unassigned) [Cpd 127]	6.72	6.04				
Fc1cccc(-c2ccc3c(c2)Oc2ccccc2C3=C2CC3CCC(C2)N3)c1 [Cpd 51]	5.61	4.78				
c1cncc(-c2ccc3c(c2)Sc2ccccc2C3=C2CC3CCC(C2)N3)c1 [Cpd 112, 3-(3-Pyridin-3-yl-thioxanthen-9-ylidene)-8-aza-bicyclo[3.2.1]octane]	6.32	6.00				
COc1cccc(C2CCCN(C(=O)c3ccc4c(c3)Oc3ccccc3C4=C3CC4CCC(C3)N4)C2)c1 (centres unmarked) [Cpd 65]	7.06	6.50				
